Test results: patent publication US7932246B2, “Histone deacetylase inhibitors” (Chroma Therapeutics Ltd., priority 2005, dated 2011)

Key:
HeLa cells = test: HeLa cell inhibition assay (SRB cell viability); format: cell-based; conditions: Homo sapiens, HeLa, 72 h, IC50 range
Method in brief: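 Log-phase cells seeded at 1000 cells/well, grown 24 h, then exposed to compound (final 20 μM top concentration) for 72 h. Viability by sulphorhodamine B staining, % inhibition relative to DMSO control. IC50 from 8-point sigmoidal variable-slope fit.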

U937 = U937 cell inhibition assay (WST-1 cell viability); format: cell-based; conditions: Homo sapiens, U-937; U937 cells, 72-96 h, WST-1 assay, IC50 range
Method in brief: (§1)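 Cells seeded at 1000-2000/well, grown 24 h, then treated for 72-96 h with 8 concentrations (top 10 μM, 3-fold, 6 replicates). Viability by WST-1; inhibition relative to DMSO, IC50 by sigmoidal variable-slope fit.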

HUT = HUT cell inhibition assay (WST-1 cell viability); format: cell-based; conditions: HUT cells, 72-96 h, WST-1 assay, IC50 range
Method in brief: as §1

[1] = target: histone deacetylase activity (HeLa nuclear extract); test: HDAC fluorescent activity assay (Biomol, Fluor de Lys substrate); format: biochemical; conditions: IC50 range
Method in brief: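 HeLa nuclear extract served as the deacetylase source for the acetyl-lysine Fluor de Lys substrate, with or without inhibitor. Developer converts deacetylated substrate to a fluorophore.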

Row | Structure (SMILES) | IC50 (HeLa cells) [nM] | IC50 (U937) [nM] | IC50 (HUT) [nM] | IC50 [1] [nM]
1 | O=C(Cc1ccc(N2CCCS2(=O)=O)cc1)NC1C2CN(c3ncc(C(=O)NO)cn3)CC21 (stereo not drawn) [Example 6, N-Hydroxy 2-(6-{2-[4-(1,1-dioxoisothiazolidin-2-yl)phenyl]acetylamino}-3-azabicyclo[3.1.0]hex-3-yl)pyrimidine-5-carboxamide] | > 3300 | > 3300 | > 3300 | < 100
2 | O=C(NO)c1cnc(N2CC3C(C2)C3NCc2ccc3ccccc3c2)nc1 (stereo not drawn) [Example 20, N-Hydroxy 2-{6-[(2-naphthylmethyl)amino]-3-azabicyclo[3.1.0]hex-3-yl}pyrimidine-5-carboxamide] | 331 to 3300 | < 330 | < 330 | < 100
3 | O=C(NO)c1cnc(N2CC3C(C2)C3NCCc2ccccc2)nc1 (stereo not drawn) [Example 38, N-Hydroxy 2-{6-[(2-phenylethyl)amino]-3-azabicyclo[3.1.0]hex-3-yl}pyrimidine-5-carboxamide] | 331 to 3300 | 331 to 3300 | < 330 | < 100
